The text below walks through data of article PMC7928264 (Journal of pharmacy & pharmaceutical sciences : a …, 2014).

Data set [1] deals with OCTs. Conditions: for Inhibition of tacrine uptake vs untreated control: 30 min pre-incubation, 1 μM tacrine 5 min, SCHs day 1.
Data set [2] deals with OATPs. Put plainly: OATPs inhibition study with rifampicin on tacrine cellular accumulation. Format: in vitro ADME, rat. Conditions: data not shown.
The test system of data set [3] is sandwich-cultured primary rat hepatocytes (SCHs). The note with it: 1 μM.
Data set [4] deals with hepatic transaminase. The note with it: human, in vivo; cited from earlier work.
The conditions of data set [5]: human, in vivo; cited from earlier work.
For data set [6], the system named is sandwich-cultured primary rat hepatocytes (SCHs).
Data set [7] has the same test system. Conditions: 5 min, 1 μM.
Data set [8] deals with P-gp. Conditions: 5 μM valspodar, 1 μM tacrine, 10 min, SCHs day 4.

Counter-ions that a name gives are not always drawn. Like-named read-outs stand apart in the source and are kept apart here.

Take `CC[N+](CC)(CC)CC` [TEA, tetraethylammonium chloride]: the “Inhibition of tacrine uptake vs untreated control” value (shortened to “Inhibition … vs untreated control”) in data set [1] (inhibitor 300 μM) was ~ 18%.

As for `CN/C(=N/CCSCc1nc[nH]c1C)NC#N` [cimetidine], the “Inhibition … vs untreated control” value in data set [1] (inhibitor 300 μM) is listed as more than 50%.

In the case of `COCCCC/C(=N\OCCN)c1ccc(C(F)(F)F)cc1` [fluvoxamine, Fluvoxamine maleate], the “Inhibition … vs untreated control” value in data set [1] (inhibitor 50 μM) was more than 50%.

For the compound `CO[C@H]1/C=C/O[C@@]2(C)Oc3c(C)c(O)c4c(O)c(c(/C=N/N5CCN(C)CC5)c(O)c4c3C2=O)NC(=O)/C(C)=C\C=C\[C@H](C)[C@H](O)[C@@H](C)[C@@H](O)[C@@H](C)[C@H](OC(C)=O)[C@@H]1C` [rifampicin], in data set [2], the “Effect on tacrine cellular accumulation” value is recorded as “did not alter tacrine cellular accumulation”.

On to `Nc1c2c(nc3ccccc13)CCCC2` [tacrine, 9-amino-1,2,3,4-tetrahydroacridine], for which the “Time of maximum biliary excretion” value in data set [3] was determined as 10 min. In addition, the BEI% in data set [3] (10 min) is given as 22.9±1.9%. In data set [4], the “Patients with significantly elevated hepatic transaminase concentrations” value is listed as 25%. Besides, in data set [5], the Oral bioavailability is reported as 17–24%. Moreover, the “Time at which uptake reaches a plateau” value in data set [6] (1 μM tacrine, SCHs day 1) was determined as 10 min. Further, the “Uptake Vmax” value in data set [6] (SCHs, day 1, saturable uptake (37°C minus 4°C), tacrine 0.1–500 μM) was determined as 908±72 pmol/min/mg protein. Also, the Average uptake in data set [7] (pH 6.4) was found to be 68±4 pmol/min/mg protein; in data set [7] (pH 7.4), 405±16 pmol/min/mg protein; in data set [7] (pH 8.4), 816±62 pmol/min/mg protein. For the same compound, in data set [7] (pH 6.4), the “Decrease in uptake compared to neutral pH (7.4)” value is “approximately 3 fold”. Also, the “Increase in uptake compared to neutral pH (7.4)” value in data set [7] (pH 8.6) is reported as approximately 2 fold.

For the compound `C/C=C/C[C@@H](C)C(=O)[C@H]1C(=O)N[C@@H](C(C)C)C(=O)N(C)CC(=O)N(C)[C@@H](CC(C)C)C(=O)N[C@@H](C(C)C)C(=O)N(C)[C@@H](CC(C)C)C(=O)N[C@@H](C)C(=O)N[C@H](C)C(=O)N(C)[C@@H](CC(C)C)C(=O)N(C)[C@@H](CC(C)C)C(=O)N(C)[C@@H](C(C)C)C(=O)N1C` [valspodar], in data set [8], the “Reduction of tacrine BEI%” value is “approximately 60%”.

On to `COc1ccc(CCN(C)CCCC(C#N)(c2ccc(OC)c(OC)c2)C(C)C)cc1OC` (stereo not shown) [verapamil, verapamil hydrochloride], for which the “Inhibition … vs untreated control” value in data set [1] (inhibitor 50 μM) is more than 50%. In addition, the “Concentration giving maximal inhibition of tacrine uptake” value in data set [1] (verapamil tested at 10, 50 and 100 μM, concentration-dependent, P<0.001) stood at 100 µM. The “Reduction in tacrine uptake” value in data set [1] (verapamil, concentration not given, SCHs) is recorded as 3 fold.
